Laboratory results from patent publication US20110178105A1, “CLINICAL BENEFITS OF EICOSAPENTAENOIC ACID IN HUMANS” (E.I. DU PONT DE NEMOURS AND COMPANY, priority 2010, published 2011).

Legend:
[1] = cited from earlier work; for effects on C-reactive protein, interleukin-6, or tumor necrosis alpha: 4 grams per day; for reduction of triglyceride levels: overweight, hyperlipidemic men
[2] = Clinical study: adverse effects and safety testing; assay type: in vivo, human
Protocol: The goal of this study was to test the safety and efficacy of an EPA-enriched oil (as described in Examples 1-3; E.I. duPont de Nemours & Co., Inc. Applied Biosciences, Wilmington, Del.), to corroborate the safety of a novel oil rich in EPA in humans prior to this product being placed on the market as a dietary supplement. This oil was tested at doses of 600 mg and 1800 mg of EPA/day as compared to olive oil placebo and a comparator omega-3 oil providing 600 mg of DHA/day over a 6 week period in a parallel arm design in approximately 120 healthy adults studied in both the fasting and post-prandial state. Safety was monitored by assessing for adverse reactions, measuring vital signs and a variety of laboratory tests including a complete metabolic profile, thyroid function tests, complete blood count, and prothrombin time.
Standard chemistry tests were carried at all visits (screening, enrollment, and final study visit after an overnight fast by Quest Laboratories, Cambridge, Mass.): blood urea nitrogen, creatinine, calculated glomerular filtration rate, sodium, potassium, chloride, carbon dioxide, calcium, total protein, albumin, globulin, total bilirubin, alkaline phosphatase, liver transaminases AST and ALT, and glucose. A complete blood count was also performed at all visits and included: hemoglobin, hematocrit, red blood cell count, platelet count, white blood cell count and a white blood cell count differential. Additional tests included: prothrombin time, and measurement of thyroid function including T3, T4 and T3 uptake. […]
At visit 2, subjects were again asked to fast for 12 hours, and information about subject characteristics including all vital signs, recent illness or hospitalization, medication and supplement use, and diet information was again obtained. […] Compliance and adverse events were assessed by telephone at weeks 1 and 3 by telephone and at week 6 by questionnaire and capsule count. […] Compliance was calculated as a percentage of consumed capsule count/expected capsule count based on the number of days the subject was in the study. […]

[3] = Clinical study: fasting insulin and glucose; assay type: in vivo, human; conditions: 6 weeks
Protocol: Standard chemistry tests were carried at all visits (screening, enrollment, and final study visit after an overnight fast by Quest Laboratories, Cambridge, Mass.): blood urea nitrogen, creatinine, calculated glomerular filtration rate, sodium, potassium, chloride, carbon dioxide, calcium, total protein, albumin, globulin, total bilirubin, alkaline phosphatase, liver transaminases AST and ALT, and glucose. A complete blood count was also performed at all visits and included: hemoglobin, hematocrit, red blood cell count, platelet count, white blood cell count and a white blood cell count differential. Additional tests included: prothrombin time, and measurement of thyroid function including T3, T4 and T3 uptake. All subjects entering the study were required to have: liver function tests (i.e., transaminases) of less than 3 times the upper limits of normal; bilirubin and alkaline phosphatase values in the normal range; serum creatinine levels of less than 2.5 mg/dl; hemoglobin levels over 11 g/dl; a normal prothrombin time; a fasting blood glucose below 200 mg/dl; and, a blood pressure below 170/110 mmHg. All subjects who qualified for the study and met all the screening and laboratory entry criteria were scheduled for an enrollment visit within one month of screening.
At visit 2, subjects were again asked to fast for 12 hours, and information about subject characteristics including all vital signs, recent illness or hospitalization, medication and supplement use, and diet information was again obtained. […] At one week and three weeks after beginning the supplements, all study subjects were contacted by telephone and asked about any adverse effects and about their compliance, and the information on their calendars with regard to capsule use and fish intake. They were also asked about whether they had experienced any fishy aftertaste or odor, and if so, how frequent were these episodes, and how unpleasant were they? The entire process as listed above was repeated after study subjects were on the study capsules for 6 weeks at the time of the final visit. Compliance and adverse events were assessed by telephone at weeks 1 and 3 by telephone and at week 6 by questionnaire and capsule count. Over 42 days, subjects were expected to have consumed a total of 252 capsules. Compliance was calculated as a percentage of consumed capsule count/expected capsule count based on the number of days the subject was in the study. All subjects were asked to stay on their capsules until they come in for their final visit. Compliance in all participants who completed the study was based on capsule count was in excess of 85%, mean 96%.
The following laboratory measurements were carried out on an automated analyzer (Roche Diagnostics, Indianapolis, Ind.) on samples obtained in the fasting state at the randomization visit, and the final visits using frozen aliquots of serum stored at −80 degrees Celsius: 1) total cholesterol; 2) triglycerides; 3) direct high density lipoprotein [“HDL”] cholesterol; 4) direct low density lipoprotein [“LDL”] cholesterol; 5) direct small dense LDL cholesterol; 6) apolipoprotein [“apo”] B; 7) apoA-I; 8) lipoprotein (a); 9) fibrinogen; 10) high sensitivity C reactive protein [“hs-CRP”]; 11) lipoprotein associated phospholipase A2 [“Lp-PLA2”]; and, 12) insulin as previously described. See, McNamara, J. R. and Schaefer, E. J., Clin. Chim. Acta, 166:1-8 (1987); Okada, M. et al., J. Lab. Clin. Med., 132:195-201 (1998); Hirano, T. et al., J. Lipid Res., 44:2193-2201 (2003); Ai, M. et al., Am. J. Cardiol., 101:315-318 (2008); Ingelsson, E. et al., JAMA, 298:776-785 (2007); Jenner, J. L. et al., Circulation, 87:1135-1141 (1993); Schaefer, E. J. et al., Am. J. Cardiol., 95:1025-1032 (2005); McNamara, J. R. et al., Atherosclerosis, 154:229-236 (2001).

| SMILES | effects on C-reactive protein, interleukin-6, or tumor necrosis alpha [1] | reduction of triglyceride levels ([1]; 4 grams/day) [%] | fishy odor with belching occasionally experienced (share of subjects) ([2]; EPA 600 mg group) [%] | fishy odor with belching occasionally experienced (share of subjects) ([2]; EPA 1800 mg group) [%] | Glucose, 6-Week Change (%) ([3]; EPA 600 mg (n = 27)) | Glucose, Final ([3]; EPA 600 mg (n = 27)) [mg/dL] | Insulin, 6-Week Change (%) ([3]; EPA 600 mg (n = 27)) | Insulin, 6-Week Change (%) ([3]; EPA 600 mg (n = 27), Fast) | Insulin, Final ([3]; EPA 600 mg (n = 27), Fast) [µIU/mL] | HDL2 cholesterol ([1]; 4 grams/day) | forearm blood flow in response to acetylcholine infusion relative to placebo ([1]; 4 grams/day) | fishy odor with belching occasionally experienced (share of subjects) ([2]; DHA 600 mg group) [%] | Insulin, 6-Week Change (%) ([3]; DHA 600 mg (n = 28), Fast) | Insulin, Final ([3]; DHA 600 mg (n = 28), Fast) [µIU/mL] |
| --- | --- | --- | --- | --- | --- | --- | --- | --- | --- | --- | --- | --- | --- | --- |
| CCC=CCC=CCC=CCC=CC/C=C\CCCC(=O)O [EPA, cis-5,8, 11, 14, 17-eicosapentaenoic acid] | no significant effects | 18 | 15 | 28 | +1.3 ± 14.0% | 92.1 ± 11.0 | +17.4 ± 70.6% | +17.4 ± 70.6% | 10.2 ± 7.9 |  |  |  |  |  |
| CCC=CCC=CCC=CCC=CCC=CC/C=C\CCC(=O)O [DHA, cis-4,7, 10, 13, 16, 19-docosahexaenoic acid, reference compound] | no significant effects | 20 |  |  |  |  |  |  |  | significantly increased | significantly increased | 39 | +26.7 ± 79.8% | 8.4 ± 4.1 |
